Experimental data published in US10729636B2, “Compositions comprising peptide [sequence]” (NURITAS LIMITED, priority 2016, dated 2020).

Tests used:
HACAT cells = assay: Cell proliferation assay (BrDu), HACAT; format: cell-based; details: compared with untreated control, FIG. 2
Method: (§1) BrDu is incorporated into newly synthesised DNA strands of actively proliferating cells. Following partial denaturation of double stranded DNA, BrDu is detected immunochemically allowing the assessment of the population of cells which are synthesizing DNA.
(§2) Following the initial 24 h incubation the cells were incubated with 5 μg/ml, 0.5 μg/ml or 0.05 μg/ml synthetic peptide for 24 h respectively.
(§3) After 18 h incubation with synthetic peptides 20 μl BrDu reagent was added to each well. At 24 h incubation the cells were fixed and the amount of […] was measured using the BrdU Cell Proliferation Assay, all steps were carried out according to the manufacturer's instructions.
This experiment was then repeated using HACAT cells.

[1] = test system: Human Dermal Fibroblasts (HDF); assay: Collagen production assay (hydroxyproline ELISA); format: cell-based; details: 5, 1 or 0.1 μg/ml, 96 h, compared with untreated control, FIG. 3
Method: Study Description Hydroxyproline in tissue preparations is a direct measure of the amount of collagen present. […] Human Hydroxyproline ELISA kit assay is designed to measure hydroxyproline in tissue or peptide compositions.
Human Dermal Fibroblasts (HDF Sigma 10605a) were seeded in 24 well plates at 50,000 cells per well in DMEM containing 10% fetal calf serum (FCS), 1% Pen/strep, 1% L-glutamine and allowed to adhere for 24 h.
Following the initial 24 h incubation the cells were incubated with 5 μg/ml, 1 μg/ml or 0.1 μg/ml synthetic peptide for 96 h respectively.
After treatment, the cell supernatant was removed and centrifuged. 50 μl of each supernatant was assayed using the […] Human Hydroxyproline ELISA kit. All steps were carried out according to the manufacturer's instructions.

[2] = test system: mTOR phosphorylated at Ser2448; assay: Muscle protein synthesis (Phospho-mTOR assay); format: cell-based; details: HSkMC cells, 2 hours, FIG. 9
Method: Phospho-mTOR sandwich ELISA detects endogenous levels of phosphorylated mTOR at Ser2448.
Day 1: Seed HSkMC cells in 500 uL/well of HSkMC Growth Medium and let them adhere to the wells for 16-24 h.
Day 2: Remove growth medium and add 500 uL/well of HSkMC Differentiation Medium to let them differentiate for 5-7 days.
Day 7: Treat cells for 2 hours. Collect cell lysates in lysis buffer.
Day 8: Perform BCA (protein determination) and run the assay. In a first incubation step, a mTOR antibody coated onto the ELISA microwells is used to capture mTOR (phospho and non-phospho) from the cell lysates. Then, following extensive washing, a specific phospho-mTOR detection antibody is added to detect only the phospho-mTOR protein captured before. Finally, a HRP-linked antibody is used to recognise the detection antibody and through the addition of TMB (HRP substrate) develop color proportionally to the quantity of mTOR phosphorylated at Ser2448.

[3] = test system: Human Dermal Fibroblasts (HDF); assay: Cell proliferation assay (BrDu), HDF; format: cell-based; details: HDF cells; 5, 0.5 or 0.05 μg/ml, 24 h; compared with untreated control; FIG. 1
Method: as §1
Human Dermal Fibroblasts (HDF—Sigma 10605a) were seeded in a 96 well plate at 10,000 cells per well in DMEM containing 10% fetal calf serum (FCS), 1% Pen/strep, 1% L-glutamine and allowed to adhere for 24 h.
as §2, §3

GLUT-4 = GLUT-4 translocation (membrane fraction ELISA); format: cell-based, Human; details: HSKMC cells, 2 hrs, FIG. 8
Method: […] Upon completion of treatment, cell membrane proteins were collected. Briefly, cells were harvested from the wells with a cell scraper and centrifuged at 300×g for 5 min. The cell pellet was washed with 300 ul of cell wash solution and then re centrifuged at 300×g for 5 min. The supernatant was discarded and the cells resuspended in 1.5 ml of cell wash solution and transferred to a 2 ml centrifuge tube. The cells were then centrifuged at 300×g for 5 min and the supernatant discarded. 150 ul of permeabilization buffer was added to the cell pellet and vortexed briefly to obtain a homogenous cell suspension. The suspension was then incubated at 4° C. for 10 min with constant mixing. […] The supernatant containing solubilized membrane and membrane associated proteins fractions was transferred to a new tube and stored at −80° C. until ready for assessment.
GLUT-4 was assessed in the cell membrane fractions using a sandwich ELISA from LSBio. […] 50 ul of stop solution was added to each well and the optical density of the sample was determined using a microplate reader set to 450 nm. GLUT-4 concentration in the samples was calculated off the standard curve after generating a four-parameter logistic (4-PL) curve fit. Sample concentration read of the curve was then adjusted by multiplying the results by the dilution factor.

WKDEAGKPLVK [SEQ ID NO. 1]
increase: cell proliferation (HACAT cells) | collagen production [1] | mTOR ([2]; 0.5 μg/ml) | mTOR ([2]; 5 μg/ml) | cell proliferation [3] | GLUT4 translocation (GLUT-4; 0.05 ug/ml) | GLUT4 translocation (GLUT-4; 5 ug/ml)
